# Measured values as given in patent US4401594A, “L-Argininal derivatives and a method of manufacturing the same” (Nippon Kayaku Kabushiki Kaisha, priority 1980, dated 1983).
# Structures can show the parent of a compound that is named as a salt. Where a SMILES comes first, the peptide text is derived from it. [ ]: non-standard residue; d: D form. The star is where a group is joined. pGlu = O=C1CC[C@@H](C(=O)O)N1; Cbz = O=C(OCc1ccccc1)*
# Biological target: T1, plasmin (Homo sapiens, UniProt P00747)
# T1 construct: fibrinogen substrate
# T1 sequence (P00779 27-440): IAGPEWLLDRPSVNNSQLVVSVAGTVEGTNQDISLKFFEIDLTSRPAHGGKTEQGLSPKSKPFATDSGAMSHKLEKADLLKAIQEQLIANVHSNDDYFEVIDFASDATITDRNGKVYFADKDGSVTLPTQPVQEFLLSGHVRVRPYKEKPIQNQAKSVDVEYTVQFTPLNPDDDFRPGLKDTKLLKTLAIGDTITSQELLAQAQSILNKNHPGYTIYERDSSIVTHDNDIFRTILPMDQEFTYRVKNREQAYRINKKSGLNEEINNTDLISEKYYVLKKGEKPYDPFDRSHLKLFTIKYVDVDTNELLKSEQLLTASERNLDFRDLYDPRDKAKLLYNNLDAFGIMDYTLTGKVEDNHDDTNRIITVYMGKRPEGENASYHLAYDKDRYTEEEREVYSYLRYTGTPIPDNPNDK
# T1 sequence (P00747 97-810): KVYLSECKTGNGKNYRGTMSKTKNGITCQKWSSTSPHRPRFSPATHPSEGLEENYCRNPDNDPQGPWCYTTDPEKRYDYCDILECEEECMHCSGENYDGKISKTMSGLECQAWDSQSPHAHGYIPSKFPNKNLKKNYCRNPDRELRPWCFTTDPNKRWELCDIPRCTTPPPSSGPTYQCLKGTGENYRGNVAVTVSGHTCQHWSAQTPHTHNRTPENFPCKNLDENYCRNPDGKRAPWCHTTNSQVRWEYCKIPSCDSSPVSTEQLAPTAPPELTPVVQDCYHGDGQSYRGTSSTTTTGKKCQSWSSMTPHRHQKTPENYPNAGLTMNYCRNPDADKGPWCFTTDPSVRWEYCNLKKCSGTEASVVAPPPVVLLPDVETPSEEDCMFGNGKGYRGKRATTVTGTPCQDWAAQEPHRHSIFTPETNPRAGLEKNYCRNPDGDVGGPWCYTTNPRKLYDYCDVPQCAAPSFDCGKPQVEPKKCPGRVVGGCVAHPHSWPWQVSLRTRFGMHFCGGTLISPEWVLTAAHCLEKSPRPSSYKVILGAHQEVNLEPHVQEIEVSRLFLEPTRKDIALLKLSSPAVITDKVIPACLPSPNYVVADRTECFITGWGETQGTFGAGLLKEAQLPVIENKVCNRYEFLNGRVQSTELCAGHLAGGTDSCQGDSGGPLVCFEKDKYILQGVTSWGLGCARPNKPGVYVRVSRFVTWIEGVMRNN
# Test: Determination of Anti-Plasmin Activity
# Type: biochemical
# Details: fibrinogen substrate, plasminogen from human serum + streptokinase, pH 7.2, 37° C., 20 minutes; read-out: IC50 Plasmin (converted)
# Description: The inhibitory activity of the compounds on each protease was determined as follows:
# Buffer solution: pH 7.2, 0.01 M phosphate buffer solution.
# Substrate: 2 g of fibrinogen (Armour Pharm. Co., U.S.A.) were dissolved in 100 ml of the phosphate buffer solution under heat.
# Enzyme: The human serum was mixed with 20 times as much water, and after acetic acid had been added into the mixture to adjust it to pH 5.2, the solution was left at room temperature for half an hour. The precipitates obtained by centrifugation at 3,000 rpm for 10 minutes was dissolved in an equal quantity of the buffer solution to that of the serum, and the resulting solution was subjected to centrigugation at 10,000 rpm for half an hour, whereby a plasminogen solution was obtained as the supernatant. A solution of streptokinase (Varidase, Lederle Lab., U.S.A.) having a concentration of 10,000 U/ml was prepared, and kept in a cold and dark place. Prior to use, it was diluted with the buffer solution into a solution having a concentration of 2,000 U/ml. The enzyme solution was adjusted prior to use so that 0.5 ml thereof might show an absorbance of about 0.4 at 280 nm after 20 minutes of reaction.
# Method: 0.5 ml of the plasminogen solution, 0.3 ml of the phosphate buffer solution, 0.1 ml of the streptokinase solution, and 0.1 ml of the test sample or water were placed in a test tube (15 mm×100 mm). After the mixed solution in the test tube had been heated at 37° C. for three minutes, 2.0 ml of the fibrinogen solution were added into the solution in the test tube, and reacted therewith at 37° C. for 20 minutes. When the reaction had been completed, 1.5 ml of a 1.7 M perchloric acid solution were added into the test tube, and its contents were shaken slightly. After the test tube had been stood at room temperature for an hour, its contents were subjected to centrigugation at 3,000 rpm for 10 minutes. The absorbance (a) of the supernatant thus obtained was measured at 280 nm. The absorbance (b) of the controll solution not containing any compound of this invention was also measured.
# The inhibition coefficients of the compounds of this invention on each enzyme were calculated from the absorbances (a) and (b) obtained as hereinabove described, in accordance with the following formula: [formula] These inhibition rates were obtained for various concentrations of the compounds according to this invention, and the concentration of a 50% inhibition (IC50) were calculated therefrom.
row,Compound,IC50
1,"CC(C)C[C@H](NC(=O)C(O)c1ccccc1)C(=O)N[C@H](C=O)CCCNC(=N)N (mixture of isomers) [Compound No. 35, DL-Mandelyl-L-leucyl-L-argininal hydrochloride]",3.17 µM
2,"CCCC(=O)N[C@@H](CC(C)C)C(=O)N[C@H](C=O)CCCNC(=N)N [Compound No. 1, n-Butanoyl-L-leucyl-L-argininal hydrochloride]",37.8 µM
3,"CCC(CC)C(=O)N[C@@H](CC(C)C)C(=O)N[C@H](C=O)CCCNC(=N)N [Compound No. 2, 2-Ethylbutanoly-L-leucyl-L-argininal hydrochloride]",81.2 µM
4,"CCCCCC(=O)N[C@@H](CC(C)C)C(=O)N[C@H](C=O)CCCNC(=N)N [Compound No. 3, n-Hexanoly-L-leucyl-L-argininal hydrochloride]",16.8 µM
5,"CC(C)CC(=O)N[C@@H](CC(C)C)C(=O)N[C@H](C=O)CCCNC(=N)N [Compound No. 4, 3-Methylbutanoyl-L-leucyl-L-argininal hydrochloride]",21.4 µM
6,"CCCCCCCCC(=O)N[C@@H](CC(C)C)C(=O)N[C@H](C=O)CCCNC(=N)N [Compound No. 5, n-Nonanoyl-L-leucyl-L-argininal hydrochloride]",2.68 µM
7,"CC(C)C[C@H](NC(=O)C1CCCCC1)C(=O)N[C@H](C=O)CCCNC(=N)N [Compound No. 6, Cyclohexanecarbonyl-L-leucyl-L-argininal hydrochloride]",56 µM
8,"CC(C)C[C@H](NC(=O)c1ccccc1)C(=O)N[C@H](C=O)CCCNC(=N)N [Compound No. 8, Benzoyl-L-leucyl-L-argininal hydrochloride]",44.4 µM
9,"CC(C)C[C@H](NC(=O)c1cccc(Cl)c1)C(=O)N[C@H](C=O)CCCNC(=N)N [Compound No. 9, m-Chlorobenzoyl-L-leucyl-L-argininal hydrochloride]",13.4 µM
10,"Cc1ccc(C(=O)N[C@@H](CC(C)C)C(=O)N[C@H](C=O)CCCNC(=N)N)cc1 [Compound No. 10, p-Methylbenzoyl-L-leucyl-L-argininal hydrochloride]",32.9 µM
11,"COc1ccc(C(=O)N[C@@H](CC(C)C)C(=O)N[C@H](C=O)CCCNC(=N)N)cc1 [Compound No. 11, p-Methoxybenzoyl-L-leucyl-L-argininal hydrochloride]",39.1 µM
12,"CC(C)C[C@H](NC(=O)c1ccc([N+](=O)[O-])cc1)C(=O)N[C@H](C=O)CCCNC(=N)N [Compound No. 12, p-Nitrobenzoyl-L-leucyl-L-argininal hydrochloride]",30.6 µM
13,"CC(C)C[C@H](NS(=O)(=O)c1ccccc1)C(=O)N[C@H](C=O)CCCNC(=N)N [Compound No. 13, Benzenesulfonyl-L-leucyl-L-argininal hydrochloride]",23.9 µM
14,"Cc1ccc(S(=O)(=O)N[C@@H](CC(C)C)C(=O)N[C@H](C=O)CCCNC(=N)N)cc1 [Compound No. 14, p-Toluenesulfonyl-L-leucyl-L-argininal hydrochloride]",14.5 µM
15,"CC(C)C[C@H](NC(=O)Cc1ccccc1)C(=O)N[C@H](C=O)CCCNC(=N)N [Compound No. 15, Phenylacetyl-L-leucyl-L-argininal hydrochloride]",14.6 µM
16,"CC(C)C[C@H](NC(=O)Cc1ccccc1[N+](=O)[O-])C(=O)N[C@H](C=O)CCCNC(=N)N [Compound No. 16, o-Nitrophenylacetyl-L-leucyl-L-argininal hydrochloride]",42.5 µM
17,"CC(C)C[C@H](NC(=O)Cc1ccc([N+](=O)[O-])cc1)C(=O)N[C@H](C=O)CCCNC(=N)N [Compound No. 17, p-Nitrophenylacetyl-L-leucyl-L-argininal hydrochloride]",3.61 µM
18,"CC(C)C[C@H](NC(=O)Cc1ccccc1O)C(=O)N[C@H](C=O)CCCNC(=N)N [Compound No. 18, o-Hydroxyphenylacetyl-L-leucyl-L-argininal hydrochloride]",12.9 µM
19,"CC(C)C[C@H](NS(=O)(=O)c1cccc2ccccc12)C(=O)N[C@H](C=O)CCCNC(=N)N [Compound No. 20, 1-Naphthalenesulfonyl-L-leucyl-L-argininal hydrochloride]",28.2 µM
20,"CC(C)C[C@H](NS(=O)(=O)c1cccc2c(N(C)C)cccc12)C(=O)N[C@H](C=O)CCCNC(=N)N [Compound No. 21, 5-Dimethylamino-1-naphthalenesulfonyl-L-leucyl-L-argininal 2 hydrochloride]",24.4 µM
21,"CC(C)C[C@H](NC(=O)OCc1ccccc1)C(=O)N[C@H](C=O)CCCNC(=N)N [Compound No. 25, Benzyloxycarbonyl-L-leucyl-L-argininal hydrochloride]",33.9 µM
22,"CC(C)C[C@H](NC(=O)c1ccco1)C(=O)N[C@H](C=O)CCCNC(=N)N [Compound No. 26, Furan-2-carbonyl-L-leucyl-L-argininal hydrochloride]",90.3 µM
23,"CC(C)C[C@H](NC(=O)[C@@H]1CCC(=O)N1C(=O)OCc1ccccc1)C(=O)N[C@H](C=O)CCCNC(=N)N [Compound No. 30, N-Benzyloxycarbonyl-L-pyroglutamyl-L-leucyl-L-argininal hydrochloride]",0.958 µM
24,"CC(C)C[C@H](NC(=O)[C@@H]1CCC(=O)N1)C(=O)N[C@H](C=O)CCCNC(=N)N [Compound No. 31, L-Pyroglutamyl-L-leucyl-L-argininal hydrochloride] ([pGlu]-Leu-Arg-aldehyde)",1.19 µM
25,"CC(C)C[C@H](NC(=O)[C@H](Cc1ccccc1)NC(=O)OCc1ccccc1)C(=O)N[C@H](C=O)CCCN=C(N)N [Compound No. 36, N-Benzyloxycarbonyl-L-phenylalanyl-L-leucyl-L-argininal hydrochloride] (Cbz-Phe-Leu-Arg-aldehyde)",1.24 µM
26,"CC(=O)N[C@@H](CC(C)C)C(=O)N[C@@H](CC(C)C)C(=O)N[C@H](C=O)CCCNC(=N)N [Leupeptin, acetyl or propionyl-L-leucyl-L-leucyl-L-argininal]",11 µM

# Same assay, conditions: read-out: IC50 Plasmin; fibrinogen substrate, plasminogen from human serum + streptokinase, pH 7.2, 37° C., 20 minutes
row,Compound,IC50
1,"CC(C)C[C@H](NC(=O)c1ccncc1)C(=O)N[C@H](C=O)CCCNC(=N)N [Compound No. 22, Isonicotinyl-L-leucyl-L-argininal hydrochloride]",88.7 µM
2,"CC(C)C[C@H](NC(=O)c1cccnc1)C(=O)N[C@H](C=O)CCCNC(=N)N [Compound No. 23, Nicotinyl-L-leucyl-L-argininal hydrochloride]",23.9 µM
3,"CC(C)C[C@H](NC(=O)[C@@H](O)[C@@H](Cc1ccccc1)NC(=O)OCc1ccccc1)C(=O)N[C@H](C=O)CCCNC(=N)N [Compound No. 37, N-Benzyloxycarbonyl-(2S,3R)-3-amino-2-hydroxy-4-phenylbutanoyl-L-leucyl-L-argininal hydrochloride]",2.4 µM

# System: fibrinolytic system
# Test: not given
# Details: cited from earlier work
row,Compound,pharmacological action on the fibrinolytic system
1,"CC(=O)N[C@@H](CC(C)C)C(=O)N[C@@H](CC(C)C)C(=O)N[C@H](C=O)CCCNC(=N)N [Leupeptin, acetyl or propionyl-L-leucyl-L-leucyl-L-argininal]",a pharmacological action on the fibrinolytic system

# System: chickens with spontaneous muscular dystrophy
# Test: not given
# Details: Libby et al., Science 1978; cited from earlier work
row,Compound,inhibition of atrophy of the muscles
1,"CC(=O)N[C@@H](CC(C)C)C(=O)N[C@@H](CC(C)C)C(=O)N[C@H](C=O)CCCNC(=N)N [Leupeptin, acetyl or propionyl-L-leucyl-L-leucyl-L-argininal]",inhibits the atrophy of the muscles
